According to the supplement of paper PMC10307832:

Key:
Test in all cases: relative viability (nuclei count vs DMSO), 5 days (fraction); higher = more cells survive
JZL-184 + OSI-027 = compound: C1CN(CCC1C(C2=CC3=C(C=C2)OCO3)(C4=CC5=C(C=C4)OCO5)O)C(=O)OC6=CC=C(C=C6)[N+](=O)[O-] [JZL-184] + COc1cccc2cc(-c3nc([C@H]4CC[C@H](C(=O)O)CC4)n4ncnc(N)c34)[nH]c12 [OSI-027] (partner 0.5 µM)
In short: (§1)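 A single step with final 0.05% Triton X-100, 1% formaldehyde and 1 ug/ml Hoechst fixed the cells and stained nuclei 5 days after treatment. Lung cancer cell lines in 1536-well plates had been treated by pin tool the day after seeding with one drug alone or a fixed anchor-drug dose plus five library-drug doses (not always all listed) in √10 steps, and nuclei were counted on 4× images. Relative viability is the ratio of nuclei in treated wells to nuclei in vehicle wells, taken as the median of duplicate plates.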

JZL-184 + Olaparib = compound: C1CN(CCC1C(C2=CC3=C(C=C2)OCO3)(C4=CC5=C(C=C4)OCO5)O)C(=O)OC6=CC=C(C=C6)[N+](=O)[O-] [JZL-184] + O=C(c1cc(Cc2n[nH]c(=O)c3ccccc23)ccc1F)N1CCN(C(=O)C2CC2)CC1 [Olaparib] (partner 8 µM)
In short: as §1

JZL-184 + Tozasertib = compound: C1CN(CCC1C(C2=CC3=C(C=C2)OCO3)(C4=CC5=C(C=C4)OCO5)O)C(=O)OC6=CC=C(C=C6)[N+](=O)[O-] [JZL-184] + Cc1cc(Nc2cc(N3CCN(C)CC3)nc(Sc3ccc(NC(=O)C4CC4)cc3)n2)n[nH]1 [Tozasertib] (partner 0.1 µM)
In short: as §1

JZL-184 + Trametinib = compound: C1CN(CCC1C(C2=CC3=C(C=C2)OCO3)(C4=CC5=C(C=C4)OCO5)O)C(=O)OC6=CC=C(C=C6)[N+](=O)[O-] [JZL-184] + CC(=O)Nc1cccc(-n2c(=O)n(C3CC3)c(=O)c3c(Nc4ccc(I)cc4F)n(C)c(=O)c(C)c32)c1 [Trametinib] (partner 0.02 µM)
In short: as §1

JZL-184 + Navitoclax = compound: C1CN(CCC1C(C2=CC3=C(C=C2)OCO3)(C4=CC5=C(C=C4)OCO5)O)C(=O)OC6=CC=C(C=C6)[N+](=O)[O-] [JZL-184] + CC1(C)CCC(c2ccc(Cl)cc2)=C(CN2CCN(c3ccc(C(=O)NS(=O)(=O)c4ccc(N[C@H](CCN5CCOCC5)CSc5ccccc5)c(S(=O)(=O)C(F)(F)F)c4)cc3)CC2)C1 [Navitoclax] (partner 0.5 µM)
In short: as §1

Cell Line | relative viability (JZL-184 + OSI-027; first compound 0.04 µM) | relative viability (JZL-184 + OSI-027; first compound 0.4 µM) | relative viability (JZL-184 + OSI-027; first compound 1.265 µM) | relative viability (JZL-184 + OSI-027; first compound 4 µM) | relative viability (JZL-184 + Olaparib; first compound 0.04 µM) | relative viability (JZL-184 + Olaparib; first compound 1.265 µM) | relative viability (JZL-184 + Olaparib; first compound 4 µM) | relative viability (JZL-184 + Tozasertib; first compound 0.04 µM) | relative viability (JZL-184 + Tozasertib; first compound 0.4 µM) | relative viability (JZL-184 + Tozasertib; first compound 1.265 µM) | relative viability (JZL-184 + Tozasertib; first compound 4 µM) | relative viability (JZL-184 + Trametinib; first compound 0.04 µM) | relative viability (JZL-184 + Trametinib; first compound 1.265 µM) | relative viability (JZL-184 + Trametinib; first compound 4 µM) | relative viability (JZL-184 + Navitoclax; first compound 0.04 µM) | relative viability (JZL-184 + Navitoclax; first compound 0.4 µM) | relative viability (JZL-184 + Navitoclax; first compound 1.265 µM) | relative viability (JZL-184 + Navitoclax; first compound 4 µM) | relative viability (JZL-184 + Olaparib; first compound 0.4 µM) | relative viability (JZL-184 + Trametinib; first compound 0.4 µM)
HCC-78 | 0.348 | 0.326 | 0.379 | 0.382 | 0.823 | 0.831 | 0.768 | 0.402 | 0.413 | 0.388 | 0.318 | 0.705 | 0.912 | 0.565 | 0.709 | 0.75 | 0.724 | 0.551 | – | –
HCC-366 | 1.04 | 0.868 | 0.97 | 0.825 | 0.361 | 0.302 | 0.36 | 0.133 | 0.508 | 0.109 | 0.0909 | 0.384 | 0.332 | 0.276 | 1.21 | 1.03 | 1.07 | 1.06 | 0.353 | 0.348
HCC-827 | 0.954 | 0.769 | 0.798 | 0.707 | 0.556 | 0.718 | 0.627 | 0.421 | 0.383 | 0.449 | 0.411 | 0.536 | 0.583 | 0.515 | 1.04 | 1.01 | 1.02 | 0.981 | 0.607 | 0.55
HOP-62 | 0.981 | 0.805 | 0.826 | 0.866 | 0.49 | 0.529 | 0.507 | 0.356 | 0.402 | 0.366 | 0.335 | 0.372 | 0.375 | 0.371 | 1.13 | 0.739 | 1.07 | 1.1 | 0.328 | 0.4
IA-LM | – | – | – | – | 0.987 | 0.827 | 0.82 | – | – | – | – | – | – | – | 0.983 | 0.711 | 0.78 | 0.794 | 0.737 | –
LC-2-ad | 0.92 | 0.926 | 0.907 | 0.734 | 0.79 | 0.696 | 0.686 | 0.451 | 0.429 | 0.511 | 0.385 | 0.94 | 0.93 | 0.881 | 0.467 | 0.248 | 0.491 | 0.369 | 0.682 | 0.896
LCLC-97TM1 | 0.493 | 0.393 | 0.504 | 0.559 | 0.437 | 0.371 | 0.385 | 0.41 | 0.177 | 0.242 | 0.242 | 0.215 | 0.222 | 0.206 | 0.362 | – | 0.663 | 0.269 | 0.374 | 0.182
LCLC-103H | 0.525 | 0.528 | 0.428 | 0.455 | 0.829 | 0.765 | 0.763 | 0.488 | 0.521 | 0.521 | 0.529 | 0.644 | 0.691 | 0.674 | – | – | – | – | 0.767 | 0.664
LK-2 | 0.195 | 0.193 | 0.249 | 0.21 | 0.777 | 0.939 | 0.835 | 0.166 | 0.163 | 0.171 | 0.181 | 0.903 | 0.856 | 0.721 | 0.941 | 0.821 | 1.06 | 0.77 | 0.661 | 0.736
NCI-H358 | 0.826 | 0.716 | 0.79 | 0.712 | 0.804 | 0.599 | 0.592 | 0.104 | 0.118 | 0.0969 | 0.101 | 0.146 | 0.148 | 0.15 | – | – | – | – | 0.637 | 0.133
NCI-H522 | 0.906 | 0.748 | 0.748 | 0.748 | 0.709 | 0.648 | 0.574 | 0.668 | 0.5 | 0.618 | 0.563 | 0.856 | 0.791 | 0.802 | – | – | – | – | 0.62 | 0.758
NCI-H650 | 0.603 | 0.525 | 0.576 | 0.542 | 0.427 | 0.438 | 0.381 | 0.84 | 0.731 | 0.848 | 0.761 | 1.06 | 0.963 | 0.995 | – | – | – | – | 0.369 | 0.871
NCI-H661 | 0.806 | 0.638 | 0.761 | 0.53 | 0.825 | 0.731 | 0.748 | 0.364 | 0.354 | 0.337 | 0.325 | 0.606 | 0.548 | 0.586 | – | – | – | – | 0.712 | 0.531
NCI-H1563 | 0.794 | 0.729 | 0.776 | 0.7 | – | – | – | – | – | – | – | – | – | – | – | – | – | – | – | –
NCI-H1703 | – | – | – | – | 0.521 | 0.576 | 0.426 | – | – | – | – | – | – | – | 1.6 | 0.852 | 1.54 | 1.4 | 0.434 | –
NCI-H1792 | 0.683 | 0.744 | 0.779 | 0.62 | 0.349 | 0.465 | 0.432 | – | – | – | – | 0.347 | 0.495 | 0.448 | 0.889 | 0.624 | 0.675 | 0.612 | 0.304 | 0.406
NCI-H2342 | 0.614 | 0.548 | 0.617 | 0.704 | 0.416 | 0.383 | 0.543 | 0.432 | 0.399 | 0.485 | 0.449 | 0.837 | 0.972 | 0.756 | – | – | – | – | 0.4 | 0.785
SW 900 | 0.596 | 0.536 | 0.566 | 0.5 | 0.966 | 0.844 | 0.898 | 0.497 | 0.459 | 0.605 | 0.482 | 0.74 | 0.864 | 0.693 | – | – | – | – | 0.858 | 0.783
